Patent US20230085307A1, “PYRIDAZINONE COMPOUND AND HERBICIDE” (NISSAN CHEMICAL CORPORATION, priority 2019, published 2023)

Tests used:
oval-leafed pondweed = experiment: Test Example 1: herbicidal activity, application before weed generation under submerged conditions (Table 16, symbol C); assay type: in vivo, oval-leafed pondweed (Monochoria vaginalis); conditions: for Herbicidal effect on C: oval-leafed pondweed (grade 0-5): 320 g/ha applied herbicide
In short: (§1)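 Alluvial soil was flooded to 4 cm depth, weed seeds were sown mixed and 2.5-leaf rice seedlings were transplanted. On sowing day, the compound's emulsion, diluted in water to a set dose, was applied to the water surface. Plants grew at 25–30 °C and were scored 0–5 after three weeks.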

velvetleaf [1] = experiment: Test Example 5: herbicidal effect by foliage application, plastic box (Table 20, symbol M); assay type: in vivo, velvetleaf (Abutilon theophrasti); conditions: foliage application; for M: velvetleaf, herbicidal effect: AAH 320 g/ha
In short: (§2)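 Sow seeds spot-wise in sterilized diluvial soil; cover with ~1.5 cm soil. Grow 14 days in greenhouse, 25° C. to 30° C. Spray foliage with emulsion diluted to predetermined amount. Rate effect after 3 weeks.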

barnyard grass [2] = experiment: Test Example 5: herbicidal effect by foliage application, plastic box (Table 20, symbol H); assay type: in vivo, barnyard grass (Echinochloa crus-galli); conditions: foliage application; for H: barnyard grass, herbicidal effect: AAH 320 g/ha
In short: as §2

windgrass = experiment: Test Example 5: herbicidal effect by foliage application, plastic box (Table 20, symbol L); assay type: in vivo, windgrass (Apera spica-venti); conditions: foliage application; for L: windgrass, herbicidal effect: AAH 320 g/ha, three weeks after application
In short: as §2

rice flat sedge = experiment: Test Example 3: herbicidal effect by foliage application, Wagner pot (Table 18, symbol E); assay type: in vivo, rice flat sedge (Cyperus iria); conditions: for herbicidal effect on E (rice flat sedge), rating 0-5: 320 g/ha
In short: (§3)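 Plants were sown in alluvial soil held under 0.1–0.5 cm standing water and grown 14 days in a greenhouse at 25–30 °C. An emulsifiable formulation, water-diluted to the set dose, was then sprayed onto the foliage, and effects were scored three weeks later using previously defined criteria.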

green foxtail [3] = experiment: Test Example 5: herbicidal effect by foliage application, plastic box (Table 20, symbol G); assay type: in vivo, green foxtail (Setaria viridis); conditions: foliage application; for G: green foxtail, herbicidal effect: AAH 320 g/ha
In short: as §2

wild oat = experiment: Test Example 5: herbicidal effect by foliage application, plastic box (Table 20, symbol I); assay type: in vivo, wild oat (Avena fatua); conditions: foliage application; for I: wild oat, herbicidal effect: AAH 320 g/ha, three weeks after application
In short: as §2

Italian ryegrass = experiment: Test Example 5: herbicidal effect by foliage application, plastic box (Table 20, symbol K); assay type: in vivo, Italian ryegrass (Lolium multiflorum); conditions: foliage application; for K: Italian ryegrass, herbicidal effect: AAH 320 g/ha, three weeks after application
In short: as §2

southern crabgrass [4] = experiment: Test Example 5: herbicidal effect by foliage application, plastic box (Table 20, symbol F); assay type: in vivo, southern crabgrass (Digitaria ciliaris); conditions: foliage application; for F: southern crabgrass, herbicidal effect: AAH 320 g/ha
In short: as §2

redroot pigweed [5] = experiment: Test Example 5: herbicidal effect by foliage application, plastic box (Table 20, symbol N); assay type: in vivo, redroot pigweed (Amaranthus retroflexus); conditions: foliage application; for N: redroot pigweed, herbicidal effect: AAH 320 g/ha
In short: as §2

chickweed = experiment: Test Example 5: herbicidal effect by foliage application, plastic box (Table 20, symbol P); assay type: in vivo, common chickweed (Stellaria media); conditions: foliage application; for P: chickweed, herbicidal effect: AAH 320 g/ha, three weeks after application
In short: as §2

late watergrass = experiment: Test Example 1: herbicidal activity, application before weed generation under submerged conditions (Table 16, symbol A); assay type: in vivo, late watergrass (Echinochloa oryzicola); conditions: for Herbicidal effect on A: late watergrass (grade 0-5): 320 g/ha applied herbicide
In short: as §1

Japanese bulrush = experiment: Test Example 1: herbicidal activity, application before weed generation under submerged conditions (Table 16, symbol B); assay type: in vivo, Japanese bulrush (Schoenoplectus juncoides); conditions: for Herbicidal effect on B: Japanese bulrush (grade 0-5): 320 g/ha applied herbicide
In short: as §1

persian speedwell = experiment: Test Example 5: herbicidal effect by foliage application, plastic box (Table 20, symbol R); assay type: in vivo, Persian speedwell (Veronica persica); conditions: foliage application; for R: persian speedwell, herbicidal effect: AAH 320 g/ha, three weeks after application
In short: as §2

Chinese sprangletop = experiment: Test Example 3: herbicidal effect by foliage application, Wagner pot (Table 18, symbol D); assay type: in vivo, chinese sprangletop (Leptochloa chinensis); conditions: for herbicidal effect on D (Chinese sprangletop), rating 0-5: 320 g/ha
In short: as §3

barnyard grass [6] = experiment: Test Example 3: herbicidal effect by foliage application, Wagner pot (Table 18, symbol H); assay type: in vivo, barnyard grass (Echinochloa crus-galli); conditions: for herbicidal effect on H (barnyard grass), rating 0-5: 320 g/ha
In short: as §3

lambsquarters [7] = experiment: Test Example 5: herbicidal effect by foliage application, plastic box (Table 20, symbol O); assay type: in vivo, lambsquarters (Chenopodium album); conditions: foliage application; for O: lambsquarters, herbicidal effect: AAH 320 g/ha
In short: as §2

blackgrass = experiment: Test Example 5: herbicidal effect by foliage application, plastic box (Table 20, symbol J); assay type: in vivo, blackgrass (Alopecurus myosuroides); conditions: foliage application; for J: blackgrass, herbicidal effect: AAH 320 g/ha, three weeks after application
In short: as §2

southern crabgrass [8] = experiment: Test Example 4: herbicidal effect by soil treatment (Table 19, symbol F); assay type: in vivo, southern crabgrass (Digitaria ciliaris); conditions: amount of applied herbicide 320 g/ha
In short: (§4)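 Applied as a water-diluted emulsion, the compound was sprayed onto soil covering newly sown seeds. Evaluation came three weeks after application, in a greenhouse held at 25° C. to 30° C.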

green foxtail [9] = experiment: Test Example 4: herbicidal effect by soil treatment (Table 19, symbol G); assay type: in vivo, green foxtail (Setaria viridis); conditions: amount of applied herbicide 320 g/ha
In short: as §4

velvetleaf [10] = experiment: Test Example 4: herbicidal effect by soil treatment (Table 19, symbol M); assay type: in vivo, velvetleaf (Abutilon theophrasti); conditions: amount of applied herbicide 320 g/ha
In short: as §4

lambsquarters [11] = experiment: Test Example 4: herbicidal effect by soil treatment (Table 19, symbol O); assay type: in vivo, lambsquarters (Chenopodium album); conditions: amount of applied herbicide 320 g/ha
In short: as §4

redroot pigweed [12] = experiment: Test Example 4: herbicidal effect by soil treatment (Table 19, symbol N); assay type: in vivo, redroot pigweed (Amaranthus retroflexus); conditions: amount of applied herbicide 320 g/ha
In short: as §4

barnyard grass [13] = experiment: Test Example 4: herbicidal effect by soil treatment (Table 19, symbol H); assay type: in vivo, barnyard grass (Echinochloa crus-galli); conditions: amount of applied herbicide 320 g/ha
In short: as §4

[14] = 320 g/ha, evaluated three weeks after application
[15] = amount of applied herbicide 320 g/ha
[16] = 320 g/ha, three weeks after application

SMILES	Herbicidal effect on C: oval-leafed pondweed (grade 0-5) (oval-leafed pondweed)	M: velvetleaf, herbicidal effect (velvetleaf [1]; three weeks after application)	H: barnyard grass, herbicidal effect (barnyard grass [2]; three weeks after application)	L: windgrass, herbicidal effect (windgrass)	herbicidal effect on E (rice flat sedge), rating 0-5 (rice flat sedge)	G: green foxtail, herbicidal effect (green foxtail [3]; three weeks after application)	I: wild oat, herbicidal effect (wild oat)	K: Italian ryegrass, herbicidal effect (Italian ryegrass)	F: southern crabgrass, herbicidal effect (southern crabgrass [4]; three weeks after application)	N: redroot pigweed, herbicidal effect (redroot pigweed [5]; three weeks after application)	P: chickweed, herbicidal effect (chickweed)	Herbicidal effect on A: late watergrass (grade 0-5) (late watergrass)	Herbicidal effect on B: Japanese bulrush (grade 0-5) (Japanese bulrush)	R: persian speedwell, herbicidal effect (persian speedwell)	herbicidal effect on D (Chinese sprangletop), rating 0-5 (Chinese sprangletop)	herbicidal effect on H (barnyard grass), rating 0-5 (barnyard grass [6])	O: lambsquarters, herbicidal effect (lambsquarters [7]; three weeks after application)	J: blackgrass, herbicidal effect (blackgrass)	further results
COc1cn(C)nc1-c1sc2ccccc2c1-c1c(O)c(C)nn(C)c1=O [1-105]	2 (Herbicidal rate of 20% or more and less than 40%)	3 (Herbicidal rate of 40% or more and less than 70%)	1 (Herbicidal rate of 5% or more and less than 20%)	4 (Herbicidal rate of 70% or more and less than 90%)	4 (Herbicidal rate of 70% or more and less than 90%)	3 (Herbicidal rate of 40% or more and less than 70%)	3 (Herbicidal rate of 40% or more and less than 70%)	0 (Herbicidal rate of 5% or less (almost no effect))	3 (Herbicidal rate of 40% or more and less than 70%)	5 (Herbicidal rate of 90% or more (almost completely withered))	5 (Herbicidal rate of 90% or more (almost completely withered))	3 (Herbicidal rate of 40% or more and less than 70%)	3 (Herbicidal rate of 40% or more and less than 70%)	4 (Herbicidal rate of 70% or more and less than 90%)	3 (Herbicidal rate of 40% or more and less than 70%)	4 (Herbicidal rate of 70% or more and less than 90%)	4 (Herbicidal rate of 70% or more and less than 90%)	0 (Herbicidal rate of 5% or less (almost no effect))	
COc1cccc(Cl)c1-c1sc2ccccc2c1-c1c(O)c(C)nn(C)c1=O [1-159]	0 (Herbicidal rate of 5% or less (almost no effect))	0 (Herbicidal rate of 5% or less (almost no effect))	0 (Herbicidal rate of 5% or less (almost no effect))	0 (Herbicidal rate of 5% or less (almost no effect))	0 (Herbicidal rate of 5% or less (almost no effect))	0 (Herbicidal rate of 5% or less (almost no effect))	0 (Herbicidal rate of 5% or less (almost no effect))	0 (Herbicidal rate of 5% or less (almost no effect))	0 (Herbicidal rate of 5% or less (almost no effect))	0 (Herbicidal rate of 5% or less (almost no effect))	5 (Herbicidal rate of 90% or more (almost completely withered))	2 (Herbicidal rate of 20% or more and less than 40%)	0 (Herbicidal rate of 5% or less (almost no effect))	5 (Herbicidal rate of 90% or more (almost completely withered))	0 (Herbicidal rate of 5% or less (almost no effect))	2 (Herbicidal rate of 20% or more and less than 40%)	0 (Herbicidal rate of 5% or less (almost no effect))	0 (Herbicidal rate of 5% or less (almost no effect))	
COCCOCOc1c(C)nn(C)c(=O)c1-c1c(-c2ccc(OCC(=O)OC)cc2)sc2ccc(F)cc12 [2-071]	0 (Herbicidal rate of 5% or less (almost no effect))				2 (Herbicidal rate of 20% or more and less than 40%)							3 (Herbicidal rate of 40% or more and less than 70%)	0 (Herbicidal rate of 5% or less (almost no effect))		3 (Herbicidal rate of 40% or more and less than 70%)	2 (Herbicidal rate of 20% or more and less than 40%)			herbicidal effect on M: velvetleaf (velvetleaf [1]; [14]): 0 (Herbicidal rate of 5% or less (almost no effect)); herbicidal effect on H: barnyard grass (barnyard grass [2]; [14]): 0 (Herbicidal rate of 5% or less (almost no effect)); herbicidal effect on L: windgrass (windgrass; [14]): 0 (Herbicidal rate of 5% or less (almost no effect)); herbicidal effect on G: green foxtail (green foxtail [3]; [14]): 0 (Herbicidal rate of 5% or less (almost no effect)); herbicidal effect on I: wild oat (wild oat; [14]): 0 (Herbicidal rate of 5% or less (almost no effect)); herbicidal effect on K: Italian ryegrass (Italian ryegrass; [14]): 0 (Herbicidal rate of 5% or less (almost no effect)); herbicidal effect on F: southern crabgrass (southern crabgrass [4]; [14]): 0 (Herbicidal rate of 5% or less (almost no effect)); herbicidal effect on N: redroot pigweed (redroot pigweed [5]; [14]): 4 (Herbicidal rate of 70% or more and less than 90%); herbicidal effect on P: chickweed (chickweed; [14]): 3 (Herbicidal rate of 40% or more and less than 70%); herbicidal effect on R: persian speedwell (persian speedwell; [14]): 0 (Herbicidal rate of 5% or less (almost no effect)); herbicidal effect on O: lambsquarters (lambsquarters [7]; [14]): 3 (Herbicidal rate of 40% or more and less than 70%); herbicidal effect on J: blackgrass (blackgrass; [14]): 0 (Herbicidal rate of 5% or less (almost no effect))
C#CCSc1ccc(-c2sc3ccc(F)cc3c2-c2c(O)c(C)nn(C)c2=O)cc1 [2-465]																			herbicidal effect, F: southern crabgrass (southern crabgrass [8]): 0 (Herbicidal rate of 5% or less (almost no effect)); Herbicidal effect, C: oval-leafed pondweed (oval-leafed pondweed; [15]): 3 (Herbicidal rate of 40% or more and less than 70%); M: velvetleaf, herbicidal effect grade (velvetleaf [1]; [16]): 4 (Herbicidal rate of 70% or more and less than 90%); H: barnyard grass, herbicidal effect grade (barnyard grass [2]; [16]): 5 (Herbicidal rate of 90% or more (almost completely withered)); herbicidal effect, G: green foxtail (green foxtail [9]): 0 (Herbicidal rate of 5% or less (almost no effect)); herbicidal effect, M: velvetleaf (velvetleaf [10]): 0 (Herbicidal rate of 5% or less (almost no effect)); herbicidal effect on E: rice flat sedge (rice flat sedge; [15]): 5 (Herbicidal rate of 90% or more (almost completely withered)); herbicidal effect, O: lambsquarters (lambsquarters [11]): 4 (Herbicidal rate of 70% or more and less than 90%); herbicidal effect, N: redroot pigweed (redroot pigweed [12]): 5 (Herbicidal rate of 90% or more (almost completely withered)); G: green foxtail, herbicidal effect grade (green foxtail [3]; [16]): 5 (Herbicidal rate of 90% or more (almost completely withered)); F: southern crabgrass, herbicidal effect grade (southern crabgrass [4]; [16]): 2 (Herbicidal rate of 20% or more and less than 40%); N: redroot pigweed, herbicidal effect grade (redroot pigweed [5]; [16]): 5 (Herbicidal rate of 90% or more (almost completely withered)); Herbicidal effect, A: late watergrass (late watergrass; [15]): 4 (Herbicidal rate of 70% or more and less than 90%); Herbicidal effect, B: Japanese bulrush (Japanese bulrush; [15]): 2 (Herbicidal rate of 20% or more and less than 40%); herbicidal effect on D: Chinese sprangletop (Chinese sprangletop; [15]): 3 (Herbicidal rate of 40% or more and less than 70%); herbicidal effect on H: barnyard grass (barnyard grass [6]; [15]): 5 (Herbicidal rate of 90% or more (almost completely withered)); O: lambsquarters, herbicidal effect grade (lambsquarters [7]; [16]): 5 (Herbicidal rate of 90% or more (almost completely withered)); herbicidal effect, H: barnyard grass (barnyard grass [13]): 0 (Herbicidal rate of 5% or less (almost no effect))
